Experimental data as given in ChEMBL document CHEMBL1201862, “PubChem BioAssay data set” (2004).
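96-well plates; 48 h exposure; 5 concentrations. Endpoints by linear interpolation between flanking doses. Not reached: highest tested concentration assigned. At the GI50, growth is halved.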 The source made the active and inactive calls. No stated cut-off is given here; in the data, active = GI50 up to about 1.1 µM and inactive = higher.

Columns and labels:
Experiment in all cases: NCI tumour cell line growth inhibition, 48 h
[1] = tested on: 786-0
[2] = tested on: A498
[3] = tested on: A549
[4] = tested on: ACHN
[5] = tested on: BT-549
[6] = tested on: CAKI-1
[7] = tested on: COLO 205
[8] = tested on: DU-145
[9] = tested on: EKVX
[10] = tested on: HCC 2998
[11] = tested on: HCT-116
[12] = tested on: HCT-15
[13] = tested on: HOP-62
[14] = tested on: HOP-92
[15] = tested on: HT-29
[16] = tested on: K562
[17] = tested on: KM12
[18] = tested on: M14
[19] = tested on: MCF7
[20] = tested on: MDA-MB-231
[21] = tested on: MDA-MB-435
[22] = tested on: MDA-N
[23] = tested on: MOLT-4
[24] = tested on: Malme-3M
[25] = tested on: NCI-H226
[26] = tested on: NCI-H23
[27] = tested on: NCI-H460
[28] = tested on: NCI-H522
[29] = tested on: NCI/ADR-RES
[30] = tested on: OVCAR-4
[31] = tested on: OVCAR-5
[32] = tested on: PC-3
[33] = tested on: RPMI-8226
[34] = tested on: RXF 393
[35] = tested on: SF-268
[36] = tested on: SF-295
[37] = tested on: SK-MEL-28
[38] = tested on: SK-MEL-2
[39] = tested on: SK-MEL-5
[40] = tested on: SK-OV-3
[41] = tested on: SN12C
[42] = tested on: SNB-19
[43] = tested on: SNB-75
[44] = tested on: SW-620
[45] = tested on: TK-10
[46] = tested on: U-251
[47] = tested on: UACC-257
[48] = tested on: UACC-62
[49] = tested on: UO-31

COc1ccc(NCn2nc(CCCCCCCCc3nn(CNc4ccc(OC)cc4)c(=S)o3)oc2=S)cc1
GI50 [1]: > 100 µM (inactive)
GI50 [2]: > 100 µM (inactive)
GI50 [3]: > 100 µM (inactive)
GI50 [4]: > 100 µM (inactive)
GI50 [5]: > 100 µM (inactive)
GI50 [6]: > 100 µM (inactive)
GI50 [7]: > 100 µM (inactive)
GI50 [8]: > 100 µM (inactive)
GI50 [9]: > 100 µM (inactive)
GI50 [10]: > 100 µM (inactive)
GI50 [11]: 21 µM (inactive)
GI50 [12]: > 100 µM
GI50 [13]: > 100 µM (inactive)
GI50 [14]: > 100 µM (inactive)
GI50 [15]: > 100 µM (inactive)
GI50 [16]: > 100 µM (inactive)
GI50 [17]: > 100 µM (inactive)
GI50 [18]: > 100 µM (inactive)
GI50 [19]: > 100 µM (inactive)
GI50 [20]: > 100 µM (inactive)
GI50 [21]: > 100 µM (inactive)
GI50 [22]: > 100 µM (inactive)
GI50 [23]: > 100 µM (inactive)
GI50 [24]: > 100 µM (inactive)
GI50 [25]: > 100 µM (inactive)
GI50 [26]: > 100 µM (inactive)
GI50 [27]: > 100 µM (inactive)
GI50 [28]: > 100 µM (inactive)
GI50 [29]: > 100 µM (inactive)
GI50 [30]: > 100 µM (inactive)
GI50 [31]: > 100 µM (inactive)
GI50 [32]: > 100 µM (inactive)
GI50 [33]: > 100 µM (inactive)
GI50 [34]: > 100 µM (inactive)
GI50 [35]: > 100 µM (inactive)
GI50 [36]: > 100 µM (inactive)
GI50 [37]: > 100 µM (inactive)
GI50 [38]: > 100 µM (inactive)
GI50 [39]: > 100 µM (inactive)
GI50 [40]: > 100 µM (inactive)
GI50 [41]: > 100 µM (inactive)
GI50 [42]: > 100 µM (inactive)
GI50 [43]: > 100 µM (inactive)
GI50 [44]: > 100 µM (inactive)
GI50 [45]: > 100 µM (inactive)
GI50 [46]: > 100 µM (inactive)
GI50 [47]: > 100 µM (inactive)
GI50 [48]: > 100 µM (inactive)
GI50 [49]: > 100 µM (inactive)

Oc1c(OCc2nnc(CCCCCCCCc3nnc(COc4ccc5ccccc5c4O)o3)o2)ccc2ccccc12
GI50 [1]: 16.6 µM (inactive)
GI50 [2]: > 100 µM (inactive)
GI50 [3]: 57.3 µM (inactive)
GI50 [4]: > 100 µM (inactive)
GI50 [5]: > 100 µM (inactive)
GI50 [6]: 29.8 µM (inactive)
GI50 [7]: > 100 µM (inactive)
GI50 [8]: > 100 µM (inactive)
GI50 [9]: > 100 µM (inactive)
GI50 [10]: > 100 µM (inactive)
GI50 [11]: 0.47 µM (active)
GI50 [12]: > 100 µM
GI50 [14]: 43 µM (inactive)
GI50 [15]: > 100 µM (inactive)
GI50 [16]: 91.6 µM (inactive)
GI50 [17]: > 100 µM (inactive)
GI50 [18]: > 100 µM (inactive)
GI50 [19]: > 100 µM (inactive)
GI50 [20]: 91.8 µM (inactive)
GI50 [21]: > 100 µM (inactive)
GI50 [22]: > 100 µM (inactive)
GI50 [23]: 19.7 µM (inactive)
GI50 [24]: > 100 µM (inactive)
GI50 [25]: > 100 µM (inactive)
GI50 [26]: 61.2 µM (inactive)
GI50 [27]: > 100 µM (inactive)
GI50 [28]: > 100 µM (inactive)
GI50 [29]: 64 µM (inactive)
GI50 [30]: > 100 µM (inactive)
GI50 [31]: > 100 µM (inactive)
GI50 [32]: > 100 µM (inactive)
GI50 [33]: > 100 µM (inactive)
GI50 [34]: > 100 µM (inactive)
GI50 [35]: 85.5 µM (inactive)
GI50 [36]: > 100 µM (inactive)
GI50 [37]: > 100 µM (inactive)
GI50 [38]: > 100 µM (inactive)
GI50 [39]: > 100 µM (inactive)
GI50 [40]: 44.5 µM (inactive)
GI50 [41]: 83.9 µM (inactive)
GI50 [42]: 39.9 µM (inactive)
GI50 [43]: 62.7 µM (inactive)
GI50 [44]: > 100 µM (inactive)
GI50 [45]: > 100 µM (inactive)
GI50 [46]: 41.7 µM (inactive)
GI50 [47]: > 100 µM (inactive)
GI50 [48]: > 100 µM (inactive)
GI50 [49]: 59.6 µM (inactive)
